Where two headings read alike, the source gives them in different places.
Molecular target: human V1A receptor (Homo sapiens, UniProt P37288)
Test: V1A filter binding assay ([3H]-AVP binding to CHO-hV1A membranes)
Protocol: 1.0 V1A Filter Binding Assay
Receptor binding assays were performed on cellular membranes prepared from CHO cells stably expressing the human V1A receptor, (CHO-hV1A). The CHO-hV1A cell line was kindly provided under a licensing agreement by Marc Thibonnier, Dept. of Medicine, Case Western Reserve University School of Medicine, Cleveland, Ohio, CHO-hV1A cells were routinely maintained at 37° C. in humidified atmosphere with 5% CO2 in DMEM/Hams F12 nutrient mix supplemented with 10% fetal bovine serum, 2 mM L-glutamine, 15 mM HEPES and 400 μg/ml G418. For bulk production of cell pellets, adherent CHO-hV1A cells were grown to confluency of 90-100% in 850 cm^2 roller bottles containing a medium of DMEM/Hams F12 Nutrient Mix supplemented with 10% fetal bovine serum, 2 mM L-gitidtamine and 15 mM HEPES. Confluent CHO-hV1A cells were washed with phosphate-buffered saline (PBS), harvested into ice cold PBS and centrifuged at 1,000 rpm. Cell pellets were stored at −80° C. until use. […] Protein concentration was determined using Bradford reagent and BSA as a standard.
Protein linearity followed by saturation binding studies were performed on each new batch of membrane. […] Saturation binding studies were then performed using various concentrations of [^3H]-arginine vasopressin, [^3]-AVP (0.05 nM-100 nM) and the Kd and Bmax determined.
Compounds were tested for their effects on [^3H]-AVP binding to CHO-hV1A membranes, (^3H-AVP; specific activity 65.5 Ci/mmol: NEN Life Sciences). […] The plates were sealed and counted on a TopCount Microplate Scintillation Counter (Packard Instruments). Non-specific binding (NSB) was determined using 1 μM unlabelled d(CH2)5Tyr(Me)AVP ([β-mercapto-β,β-cyclopentamethylenepropionyl,0-Me-Tyr^2,Arg^8]-vasopressin) (βMCPVP), (Sigma). The radioligand binding data was analysed using a four parameter logistic equation with the min forced to 0%. […] Specific binding was calculated by subtracting the mean NSB cpm from the mean Total cpm. For test compounds the amount of ligand bound to the receptor was expressed as % bound=(sample cpm−mean NSB cpm)/specific binding cpm×100. […]

[1] = [3H]-AVP binding to CHO-hV1A membranes, screen 1.0, read-out: Ki

Chain of human V1A receptor (P37288 whole entry): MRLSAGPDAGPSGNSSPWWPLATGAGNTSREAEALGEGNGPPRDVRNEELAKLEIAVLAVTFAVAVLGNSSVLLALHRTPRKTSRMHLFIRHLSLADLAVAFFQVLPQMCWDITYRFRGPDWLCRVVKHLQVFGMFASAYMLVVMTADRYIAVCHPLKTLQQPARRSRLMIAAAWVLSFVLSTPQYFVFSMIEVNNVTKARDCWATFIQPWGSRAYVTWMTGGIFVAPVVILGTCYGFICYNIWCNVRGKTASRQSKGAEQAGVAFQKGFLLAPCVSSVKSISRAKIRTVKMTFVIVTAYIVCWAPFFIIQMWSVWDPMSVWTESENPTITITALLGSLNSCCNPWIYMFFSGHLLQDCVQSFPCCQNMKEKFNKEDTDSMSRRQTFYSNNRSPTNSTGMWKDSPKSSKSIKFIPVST

## CS(=O)(=O)N1Cc2cc(Cl)ccc2-n2c(nnc2N2CCC(c3ccccn3)CC2)C1 [Example 3, 8-Chloro-5-(methylsulfonyl)-1-(4-pyridin-2-ylpiperidin-1-yl)-5,6-dihydro-4H-[1,2,4]triazolo[4,3-a][1,4]benzodiazepine]
  Ki: 0.62 nM

## CS(=O)(=O)N1Cc2cc(Cl)ccc2-n2c(nnc2N2CCC(c3ccccc3)CC2)C1 [Example 6, 8-Chloro-5-(methylsulfonyl)-1-(4-phenylpiperidin-1-yl)-5,6-dihydro-4H-[1,2,4]triazolo[4,3-a][1,4]benzodiazepine]
[1]
  Ki: 0.17 nM

## CN(C)S(=O)(=O)N1Cc2cc(Cl)ccc2-n2c(nnc2N2CCC(c3ccccc3)CC2)C1 [Example 8, 8-Chloro-N,N-dimethyl-1-(4-phenylpiperidin-1-yl)-4H-[1,2,4]triazolo[4,3-a][1,4]benzodiazepine-5(6H)-sulphonamide]
[1]
  Ki: 0.36 nM

— patent US7456170B2, “Triazolobenzodiazepines and their use as vasopressin antagonists” (Pfizer Inc., priority 2004, dated 2008)
